Literature values, collected in patent US20230270635A1, “METHODS AND COMPOSITIONS FOR COSMETIC APPLICATIONS” (GLO Pharma, Inc., priority 2021, published 2023).

Conditions: non-ionic surfactants with HLB of 10 or less, Table 1

HLB	Compound
HLB = 5.3	CCCCCCCCCCCCCCCCOCCOCCO [Ceteth-2, Diethylene glycol hexadecyl ether]
HLB = 4.3	Sorbitan monooleate
HLB = 10	Polyoxyethylene (8) dilaurate [PEG-8 dilaurate]
HLB = 4.9	CCCCCCCCCCCCCCCCCCOCCOCCO [Steareth-2, 2-(2-octadecoxyethoxy)ethanol]
HLB = 8	PEG-8 distearate
HLB = 6.6	Polyoxyethylene (3) Oleyl Ether [Oleth-3]
HLB = 1.8	Sorbitan trioleate
HLB = 7.2	PEG-8 dioleate
HLB = 4.7	Sorbitan monostearate
HLB = 6.7	Sorbitan monopalmitate
HLB = 3.7	Sorbitan sesquioleate
HLB = 4.7	Sorbitan Isostearate
HLB = 1	CCCCCCCCCCCCCCCCCC(=O)OCCOC(=O)CCCCCCCCCCCCCCCCC [Glycol distearate]
HLB = 4.9	Polyoxyethylene (2) Oleyl Ether [Oleth-2]
HLB = 6	Polyoxyethylene (4) dilaurate [PEG-4 dilaurate]
HLB = 9	Polyoxyethylene (5) Oleyl Ether [Oleth-5]
HLB = 9.6	Polysorbate 61
HLB = 8.6	Sorbitan monolaurate

Compound	HLB
CCCCCCCCCCCC(=O)OCC(O)CO (stereo not shown) [Glyceryl laurate]	HLB = 5.2
CCCCCCCCCCCCCCCCCC(=O)OCC(O)CO (stereo not shown) [Glyceryl stearate]	HLB = 3.8
Glyceryl stearate SE	HLB = 5.8
PEG-30 dipolyhydroxy-stearate	HLB = 5.5
CCCCCCCC(=O)OCC(O)CO (stereo not shown) [Glyceryl caprylate]	HLB = 5-6
Propylene glycol monolaurate	HLB=3
CCCCCCCCCCCCCCCCCC(=O)OCCO [Glycol stearate]	HLB = 2.9
